Experimental data as given in ChEMBL document CHEMBL5346904 (Eur J Med Chem, 2023).
Converted amounts (≈) assume the structure as drawn.

Columns and labels:
[1] = test system: Pseudomonas aeruginosa; assay: Antimicrobial activity against Pseudomonas aeruginosa ATCC 27853 assessed as inhibition of bacterial growth incubated for 48 hrs by CLSI based broth microdilution method; type: functional
[2] = Selectivity index, ratio of EC50 for hemolytic activity in human RBC assessed as hemolysis to MIC for antimicrobial activity against Bacillus subtilis 168 assessed as inhibition of bacterial growth; type: toxicity; details: human red blood cells (erythrocytes), read-out: Selectivity Index
[3] = Hemolytic activity in human RBC assessed as hemolysis incubated for 1 hr by absorbance based microplate reader analysis; type: toxicity, cell-based, Erythrocyte; details: human red blood cells (erythrocytes)
[4] = Selectivity index, ratio of EC50 for hemolytic activity in human RBC assessed as hemolysis to MIC for antimicrobial activity against Staphylococcus aureus ATCC 9144 assessed as inhibition of bacterial growth; type: toxicity; details: human red blood cells (erythrocytes), read-out: Selectivity Index
[5] = test system: Staphylococcus aureus; assay: Antimicrobial activity against Staphylococcus aureus ATCC 9144 assessed as inhibition of bacterial growth incubated for 48 hrs by CLSI based broth microdilution method; type: functional
[6] = test system: Escherichia coli; assay: Antimicrobial activity against Escherichia coli ATCC 25922 assessed as inhibition of bacterial growth incubated for 48 hrs by CLSI based broth microdilution method; type: functional
[7] = test system: Bacillus subtilis; assay: Antimicrobial activity against Bacillus subtilis 168 assessed as inhibition of bacterial growth incubated for 48 hrs by CLSI based broth microdilution method; type: functional
[8] = Selectivity index, ratio of EC50 for hemolytic activity in human RBC assessed as hemolysis to MIC for antimicrobial activity against Pseudomonas aeruginosa ATCC 27853 assessed as inhibition of bacterial growth; type: toxicity; details: human red blood cells (erythrocytes), read-out: Selectivity Index
[9] = Selectivity index, ratio of EC50 for hemolytic activity in human RBC assessed as hemolysis to MIC for antimicrobial activity against Escherichia coli ATCC 25922 assessed as inhibition of bacterial growth; type: toxicity; details: human red blood cells (erythrocytes), read-out: Selectivity Index

SMILES	MIC [1]	selectivity ratio [2]	EC50 at 1 h [3]	selectivity ratio [4]	MIC [5]	MIC [6]	MIC [7]	selectivity ratio [8]	selectivity ratio [9]
N=C(N)NCCCN1C(=O)N(CCCNC(=N)N)C(Cc2ccc(Br)c(Cl)c2)(Cc2ccc(Br)c(Cl)c2)C1=O	64 µg/mL (≈ 90.7 µM)	> 234	> 467 µg/mL	> 234	2 µg/mL (≈ 2.84 µM)	32 µg/mL (≈ 45.4 µM)	2 µg/mL (≈ 2.84 µM)	–	–
N=C(N)NCCCCN1C(=O)N(CCCCNC(=N)N)C(Cc2cc(Br)cc(Br)c2)(Cc2cc(Br)cc(Br)c2)C1=O.O=C(O)C(F)(F)F.O=C(O)C(F)(F)F	16 µg/mL	206	206 µg/mL	206	1 µg/mL	4 µg/mL	1 µg/mL	13	52
N=C(N)NCCCCN1C(=O)N(CCCCNC(=N)N)C(Cc2ccc(C(F)(F)F)cc2)(Cc2ccc(C(F)(F)F)cc2)C1=O.O=C(O)C(F)(F)F.O=C(O)C(F)(F)F	> 128 µg/mL	–	> 503 µg/mL	–	4 µg/mL	64 µg/mL	4 µg/mL	–	–
NCCCN1C(=O)N(CCCN)C(Cc2ccccc2)(Cc2ccccc2)C1=O.O=C(O)C(F)(F)F.O=C(O)C(F)(F)F	> 256 µg/mL	–	> 311 µg/mL	–	> 256 µg/mL	> 256 µg/mL	256 µg/mL	–	–
N=C(N)NCCCN1C(=O)N(CCCNC(=N)N)C(Cc2ccc(Br)c3ccccc23)(Cc2ccc(Br)c3ccccc23)C1=O.O=C(O)C(F)(F)F.O=C(O)C(F)(F)F	32 µg/mL	103	206 µg/mL	103	2 µg/mL	8 µg/mL	2 µg/mL	–	26
NCCCN1C(=O)N(CCCN)C(Cc2ccc(C(F)(F)F)cc2)(Cc2ccc(C(F)(F)F)cc2)C1=O.O=C(O)C(F)(F)F.O=C(O)C(F)(F)F	> 256 µg/mL	–	> 379 µg/mL	–	64 µg/mL	256 µg/mL	16 µg/mL	–	–
N=C(N)NCCCN1C(=O)N(CCCNC(=N)N)C(Cc2ccccc2)(Cc2ccccc2)C1=O.O=C(O)C(F)(F)F.O=C(O)C(F)(F)F	> 256 µg/mL	–	> 353 µg/mL	–	64 µg/mL	> 256 µg/mL	128 µg/mL	–	–
NCCCn1c(Cc2cc(Br)cc(Br)c2)c(Cc2cc(Br)cc(Br)c2)n(CCCN)c1=O.O=C(O)C(F)(F)F.O=C(O)C(F)(F)F	8 µg/mL	–	52 µg/mL	–	2 µg/mL	4 µg/mL	1 µg/mL	–	–
NCCCN1C(=O)N(CCCN)C(Cc2cc(C(F)(F)F)cc(C(F)(F)F)c2)(Cc2cc(C(F)(F)F)cc(C(F)(F)F)c2)C1=O.O=C(O)C(F)(F)F.O=C(O)C(F)(F)F	16 µg/mL	50	399 µg/mL	25	16 µg/mL	16 µg/mL	8 µg/mL	25	25
NCCCCN1C(=O)N(CCCCN)C(Cc2ccc(Br)c(Cl)c2)(Cc2ccc(Br)c(Cl)c2)C1=O.O=C(O)C(F)(F)F.O=C(O)C(F)(F)F	64 µg/mL	> 110	> 439 µg/mL	> 55	8 µg/mL	64 µg/mL	4 µg/mL	–	–
NCCCCN1C(=O)N(CCCCN)C(Cc2cc(C(F)(F)F)cc(C(F)(F)F)c2)(Cc2cc(C(F)(F)F)cc(C(F)(F)F)c2)C1=O.O=C(O)C(F)(F)F.O=C(O)C(F)(F)F	64 µg/mL	–	> 461 µg/mL	–	16 µg/mL	64 µg/mL	4 µg/mL	–	–
NCCCN1C(=O)N(CCCN)C(=O)C(Cc2cc(Br)cc(Br)c2)(Cc2cc(Br)cc(Br)c2)C1=O.O=C(O)C(F)(F)F.O=C(O)C(F)(F)F	8 µg/mL	–	–	–	4 µg/mL	8 µg/mL	4 µg/mL	–	–
